Key:
[1] = biological target: Epidermal growth factor receptor (Homo sapiens) (UniProt P00533); experiment: Inhibition of EGFR PTK at 0.01 uM
[2] = biological target: Epidermal growth factor receptor (Homo sapiens) (UniProt P00533); experiment: Inhibition of EGFR PTK at 0.1 uM
[3] = biological target: Epidermal growth factor receptor (Homo sapiens) (UniProt P00533); experiment: Inhibition of EGFR PTK at 1 uM
[4] = biological target: Epidermal growth factor receptor (Homo sapiens) (UniProt P00533); experiment: Inhibition of EGFR PTK at 10 uM

Sequence of Epidermal growth factor receptor (Homo sapiens) (P00533 whole entry): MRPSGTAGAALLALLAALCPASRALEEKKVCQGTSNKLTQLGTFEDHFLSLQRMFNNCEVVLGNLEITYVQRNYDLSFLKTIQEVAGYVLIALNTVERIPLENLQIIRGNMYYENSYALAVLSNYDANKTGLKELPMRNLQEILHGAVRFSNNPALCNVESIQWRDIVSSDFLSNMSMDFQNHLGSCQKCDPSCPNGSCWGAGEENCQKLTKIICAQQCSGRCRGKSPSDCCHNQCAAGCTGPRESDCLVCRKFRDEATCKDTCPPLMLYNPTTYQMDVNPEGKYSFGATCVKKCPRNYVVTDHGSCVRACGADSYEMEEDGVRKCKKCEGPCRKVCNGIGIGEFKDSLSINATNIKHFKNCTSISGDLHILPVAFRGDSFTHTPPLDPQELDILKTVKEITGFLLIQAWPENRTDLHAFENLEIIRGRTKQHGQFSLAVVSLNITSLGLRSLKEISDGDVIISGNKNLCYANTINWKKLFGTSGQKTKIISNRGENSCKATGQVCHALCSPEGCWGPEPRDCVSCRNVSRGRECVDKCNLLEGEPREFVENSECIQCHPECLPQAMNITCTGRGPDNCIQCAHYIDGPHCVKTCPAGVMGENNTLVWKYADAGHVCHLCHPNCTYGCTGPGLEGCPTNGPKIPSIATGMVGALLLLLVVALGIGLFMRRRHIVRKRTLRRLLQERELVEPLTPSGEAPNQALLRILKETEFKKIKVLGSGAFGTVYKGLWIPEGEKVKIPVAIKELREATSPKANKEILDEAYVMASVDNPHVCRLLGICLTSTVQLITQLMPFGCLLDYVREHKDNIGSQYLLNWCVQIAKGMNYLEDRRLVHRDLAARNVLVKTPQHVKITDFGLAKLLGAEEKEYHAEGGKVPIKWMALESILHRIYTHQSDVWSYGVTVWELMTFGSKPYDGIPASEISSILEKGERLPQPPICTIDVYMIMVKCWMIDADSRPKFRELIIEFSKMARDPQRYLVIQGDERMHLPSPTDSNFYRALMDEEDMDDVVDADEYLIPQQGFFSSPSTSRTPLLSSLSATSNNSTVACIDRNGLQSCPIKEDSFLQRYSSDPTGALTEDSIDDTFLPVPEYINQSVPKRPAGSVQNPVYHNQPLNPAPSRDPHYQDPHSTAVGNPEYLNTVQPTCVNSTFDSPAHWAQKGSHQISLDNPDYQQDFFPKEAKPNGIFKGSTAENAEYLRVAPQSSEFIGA

Row | inhibition [1] | inhibition [2] | inhibition [3] | inhibition [4] | SMILES
1 | 0% | 0.8% | 28.1% | 62.2% | C=CC(=O)Nc1ccc(C(=O)Nc2ccc(Oc3ccccc3)cc2)c(O)c1
2 | 52.9% | 89.5% | 90.6% | 93% | C=CC(=O)Nc1ccc(O)c(C(=O)Nc2cccc(Br)c2)c1
3 |  |  |  | 46.6% | CCC(=O)Nc1ccc(C(=O)Nc2cccc(C(=O)N(CC)CC)c2)c(O)c1
4 | 49.3% | 84.8% | 91.7% | 93.5% | C=CC(=O)Nc1ccc(C(=O)Nc2cccc(C(O)c3ccccc3)c2)c(O)c1 (configuration not stated)
5 | 26% | 84.2% | 88.6% | 91% | C=CC(=O)Nc1ccc(C(=O)Nc2cccc(C(=O)N3CCCC3)c2)c(O)c1
6 | 75.1% | 88% | 91.2% | 91.9% | C=CC(=O)Nc1ccc(C(=O)Nc2cccc(C(=O)N3CCCCC3)c2)c(O)c1
7 | 76% | 88.2% | 89.9% | 91.3% | C=CC(=O)Nc1ccc(C(=O)Nc2cccc(Br)c2)c(O)c1
8 |  | 21.6% | 46.3% | 62.6% | C=CC(=O)Nc1ccc(C(=O)Nc2cccc(Cl)c2)c(O)c1

Continued, compound first:

Row | SMILES | inhibition [1] | inhibition [2] | inhibition [3] | inhibition [4]
9 | C=CC(=O)Nc1ccc(C(=O)Nc2cccc(Oc3ccccc3)c2)c(O)c1 | 18.8% | 86.6% | 89.3% | 91.2%
10 | C=CC(=O)Nc1ccc(O)c(C(=O)Nc2cccc(Cl)c2)c1 |  | 23.3% | 38.3% | 73.1%
11 | CCC(=O)Nc1ccc(C(=O)Nc2ccc(Oc3ccccc3)cc2)c(O)c1 |  |  |  | 48.5%
12 | C=CC(=O)Nc1ccc(C(=O)Nc2cccc(C(=O)N(CC)CC)c2)c(O)c1 | 14.1% | 40.4% | 54.4% | 63.9%
13 | C=CC(=O)Nc1ccc(C(=O)Nc2cccc(Oc3ccccc3)c2)c(OC)c1 |  |  |  | 1.59%
14 | C=CC(=O)Nc1ccc(C(=O)Nc2cccc(C(O)c3ccccc3)c2)c(OC)c1 (configuration not stated) |  |  |  | 5.84%

— ChEMBL document CHEMBL1148570, “Acryloylamino-salicylanilides as EGFR PTK inhibitors” (Bioorg Med Chem Lett, 2006)
